Measured values from patent US20260041725A1, “MYCONOSIDE-RICH EXTRACT FROM IN VITRO SYSTEMS OF PLANTS BELONGING TO GENERA HABERLEA AND RAMONDA, METHOD OF PREPARATION, AND USE AS CHEMO-, RADIO- AND UV PROTECTOR” (INNOVA BM Ltd., priority 2022, published 2026).

How the values were obtained:
[1] = DPPH radical scavenging activity by direct EPR spectroscopy, with radioprotector amifostine (Example 6); conditions: 0.5% aqueous solution, FIG. 5
Description: It has been proven that free radicals generated after exposure to gamma radiation are highly reactive and can trigger chain reactions leading to significant biological damage and increased oxidative stress. […] They are substances and compounds of synthetic or natural origin that allow the body's cells to withstand higher levels of radiation or can quickly eliminate the harmful genotoxic effects of such radiation and maintain human genome stability. […] (FIG. 5).

[2] = tested on: human lymphocyte cultures; experiment: Induced chromosomal aberrations test, before and after gamma irradiation (Example 8); type: cell-based; conditions: non-irradiated blood cells; FIG. 8A
Description: The clastogenic activity and anticlastogenic potential of Extract 1 and Extract 2 (obtained according to Example 1), as well as of the clinically proven cytoprotective agent amifostine, were investigated alone and in combination on human lymphocyte cultures in vitro before and after exposure to ionizing radiation (y-rays) through tests for detection of induced chromosomal aberrations.
The study design included a total of 6 groups, including the untreated control. In each group, 5 blood donors were examined, and in each donor 100 metaphase plates obtained from lymphocyte cells from peripheral venous blood were analyzed for chromosomal aberrations, or a total of 500 metaphase plates for each group.
Cell cultures were prepared using the method of Evans H. J. for short-term culturing of peripheral blood lymphocytes and obtaining metaphase plates for chromosome aberration reading. Chromosome microscope slides were observed on an Olympus BX41 microscope at the most convenient magnifications—screening preparations at magnification 63 and detailed analysis of chromosomes for aberrations at magnification 1000. A minimum of 100 metaphases from each sample were analyzed. […] Exposure was calculated depending on the geometrical parameters of the irradiator, the distance and power of the source.

[3] = DPPH radical scavenging activity before and after 2.0 Gy gamma irradiation (Example 6); conditions: 0.25% aqueous solution, FIG. 6
Procedure: The effect of combinations of the investigated extracts with the commercial radioprotector amifostine was also studied before and after gamma irradiation (FIG. 6). 2.0 Gy 60Co gamma radiation (y-rays) was performed in a water bath (37° C.) with a Rokus-M irradiator at 24 Gy/min.

[4] = tested on: human lymphocyte cultures; experiment: Cytokinesis-block micronucleus test, irradiated and non-irradiated blood (Example 7); type: cell-based; conditions: non-irradiated blood cells; FIG. 7A
Description: The anticlastogenic potential of Extract 1 and Extract 2 (obtained according to Example 1), as well as of the clinically proven cytoprotective agent amifostine, was investigated individually and in combinations on human lymphocyte cultures in vitro before and after exposure to ionizing radiation (gamma rays) by micronucleus scoring tests. […] A compound is considered mutagenic when it increases the spontaneous frequency of the micronuclei (MN) in polychromatic erythrocytes or in lymphocytes. […] The cytokinesis-block micronucleus assay of Fenech, M. and A. Morley (1985) was used to analyze MN in binuclear lymphocytes from peripheral blood. The number of MN found in the examined 500 binuclear cells from cell cultures prepared with irradiated and non-irradiated peripheral venous blood taken from 5 healthy volunteers was investigated. The blood of the donors was exposed to 2.0 Gy 60Co gamma radiation (y-rays) in a water bath (37° C.) with a Rokus-M irradiator at 24 Gy/min. Exposure was calculated depending on the geometrical parameters of the irradiator, the distance and power of the source.

[5] = UVA and UVB light transmission (T %) of dilutions of Extract 2 (Example 4); type: physicochemical; conditions: FIG. 3
Procedure: UVA and UVB light transmission (T %) was studied for different dilutions of Extract 2 (obtained according to Example 1 herein) with myconoside concentrations of 0.11 mg/ml, 0.055 mg/ml, 0.011 mg/ml, 0 0.0055 mg/ml, and 0.00275 mg/ml, as presented in FIG. 3.

[6] = DPPH radical scavenging activity by direct EPR spectroscopy, with UV protector Oxybenzone (Example 5); conditions: for percentage of trapped DPPH radicals: 0.5% aqueous solution, FIG. 4
Procedure: The radical scavenging activities (% inhibition) of aqueous solutions (0.5%) of Extract 1, Extract 2 (obtained according to Example 1), Oxybenzone, and 1:1 extract: Oxybenzon combinations (w/w) was evaluated by a DPPH test. A comparative DPPH analysis was carried out and the antioxidant potential of Extract 1, Extract 2, a commercial UV protector (Oxybenzone), as well as combinations of Extract 1 with Oxybenzone and of Extract 2 with Oxybenzone was compared. […] The method of direct EPR spectroscopy was used (Yordanov and Christova, 1997; Karamalakova, 2014). To measure DPPH radical scavenging capacity, 98% ethanolic solution of DPPH (80 mM, stock) was used, room temperature (22° C.), and Extract 1, Extract 2, Oxybenzone and the relevant combinations (at a concentration of 0.5%) were mixed and homogenized. The mixture was incubated in the dark, and examined for DPPH-H/R radicals generated in the system at the 1st, 5th and 10th minute. DPPH solution was used as an internal standard for the EPR signal (FIG. 4).

NCCCNCCSP(=O)(O)O [amifostine]
percentage of trapped DPPH radicals ([1]; 1st minute): 5.1%
percentage of trapped DPPH radicals ([1]; 5th minute): 4.5%
percentage of trapped DPPH radicals ([1]; 10th minute): 3.9%
clastogenic activity (frequency of aberrant cells) [2]: no clastogenic activity
percentage of trapped DPPH radicals ([3]; after 2.0 Gy gamma irradiation): 5.9%
percentage of trapped DPPH radicals ([3]; before gamma irradiation): 2.5%
clastogenic activity (number of MN in 500 binuclear cells) [4]: lack of clastogenic activity

O=C(CCc1ccc(O)c(O)c1)O[C@H]1[C@H](O[C@H]2OC[C@](O)(CO)[C@H]2O)[C@@H](O)[C@H](OCCc2ccc(O)c(O)c2)O[C@@H]1CO[C@@H]1OC[C@](O)(CO)[C@H]1O [myconoside, [(2R,3R,4R,5R,6R)-4-[(2R,3R,4R)-3,4-dihydroxy-4-(hydroxymethyl)oxolan-2-yl]oxy-2-[[(2R,3R,4R)-3,4-dihydroxy-4-(hydroxymethyl)oxolan-2-yl]oxymethyl]-6-[2-(3,4-dihydroxyphenyl)ethoxy]-5-hydroxyoxan-3-yl]3-(3,4-dihydroxyphenyl)propanoate]
protection (UV radiation transmission) ([5]; maximum concentration of 0.11 mg/ml of myconoside (dilutions of Extract 2 of Example 1)): 100%
inhibition of UV radiation transmission ([5]; minimum concentration of 0.011 mg/ml of myconoside (dilutions of Extract 2 of Example 1)): 50%

COc1ccc(C(=O)c2ccccc2)c(O)c1 [Oxybenzone]
percentage of trapped DPPH radicals ([6]; 1st minute): 4.7%
percentage of trapped DPPH radicals ([6]; 5th minute): 3.2%
percentage of trapped DPPH radicals ([6]; 10th minute): 2.2%
antioxidant activity (in words) ([6]; 0.5%, Oxybenzone alone vs 1:1 combinations with extracts, p<0.001): very low antioxidant activity
